{"source": "patent US20240009161A1", "about": "“[…] MATERIAL WITH LOW pH AND LOW TOXICITY ACTIVE AGAINST AT LEAST ONE PATHOGEN FOR ADDRESSING PATIENTS WITH RESPIRATORY […]” (priority 2020, published 2024)", "key": {"SARS-CoV-2 virus": {"test_system": "SARS-CoV-2 virus", "conditions": "hard surfaces, 1 minute, 4% concentration, 2.68 pH; cited from earlier work"}, "[1]": {"test_system": "Streptococcus pneumoniae ATCC 6303", "assay": "ASTM E2315 suspension test, 1 minute", "format": "cell-based", "method": "(§1) In order to assess the antimicrobial efficacy of various acid compounds and combinations, a variety of potential pharmaceutically acceptable fluid formulations within the scope of the present disclosure were evaluated to determine antimicrobial efficacy against common viral, bacterial, and fungal pathogens. These studies were all performed by an ISO 17025 Accredited and GLP Compliant Laboratory. These in vitro tests followed ASTM (American Society of Testing and Materials) standard suspension tests for antimicrobial efficacy. The tests were all performed with a 1-minute contact time based on the pharmacokinetics previously described.\nPurpose: Streptococcus pneumoniae is a leading cause of bacterial pneumonia, meningitis, and sepsis, and is estimated to have caused approximately 335,000 (240,000-460,000) deaths in children aged <5 years in 2015 globally. Due to the prevalence and mortality of S. pneumoniae a wide range of acid formulations were tested against this common pathogen to determine what variables may affect efficacy. The purpose of the tests performed was to determine what pH is required to achieve 1 log (90%) efficacy in 1 minute against S. pneumoniae using various acid formulations."}, "[2]": {"test_system": "Pseudomonas aeruginosa ATCC BAA-2801", "assay": "ASTM E2315 suspension test, 1 minute", "format": "cell-based", "method": "as §1\n(§2) Purpose: The first set of in vitro efficacy tests were performed on antibiotic resistant Staphylococcus aureus and Pseudomonas aeruginosa bacteria. These two antibiotic resistant bacterial strains were initially selected since these pathogens represent two broad classes of bacteria. S. aureus is gram-positive and P. aeruginosa is gram-negative. Antibiotic resistant strains of each pathogen are considered some of the deadliest respiratory bacterial strains with limited therapeutic options.\n(§3) The as-received pH measurements were of the test materials as received by the test laboratory. The ASTM antimicrobial test procedures mix 9 parts test material with 1 part medium containing the pathogen. The as-applied pH is the pH after mixing, which is what is seen by the pathogen. After the test duration, 1 minute for these tests, the test material is neutralized, and the pathogens are counted and compared with the control."}, "[3]": {"test_system": "Klebsiella pneumoniae ATCC 4532", "assay": "ASTM E2315 suspension test, 1 minute", "format": "cell-based", "conditions": "1.99 pH"}, "[4]": {"test_system": "Haemophilus influenza ATCC 8149", "assay": "ASTM E2315 suspension test, 1 minute", "format": "cell-based", "conditions": "1.99 pH", "method": "as §1\nThree other bacteria and three fungi were selected that represent a wide variety of respiratory pathogens."}, "[5]": {"test_system": "Mycobacterium terrae ATCC 15755", "format": "cell-based"}, "[6]": {"test_system": "Aspergillus fumigatus ATCC 36607", "assay": "ASTM E2315 suspension test, 1 minute", "format": "cell-based", "conditions": "1.9 pH"}, "[7]": {"test_system": "Rhizopus microspores ATCC 52807", "assay": "ASTM E2315 suspension test, 1 minute", "format": "cell-based", "conditions": "1.9 pH"}, "[8]": {"test_system": "Human Coronavirus, 229E strain, ATCC VR-740", "assay": "ASTM E1052 virus suspension test, 1 minute", "format": "cell-based", "method": "A 1-minute suspension test is considered to be the most representative in vitro test to simulate in vivo efficacy based on previously discussed pharmacokinetics. A 1 log or 90% efficacy target has been chosen with consideration of patient recovery, while minimizing the effective concentration and potential patient risk. In one contemplated method of administration as described in the present disclosure, the material is administered to the patient in need thereof by inhalation by nebulizer. It is contemplated that patients using an inhalation method such as nebulizer administration would be inhaling the therapeutic material comprising a pharmaceutically acceptable fluid as disclosed herein continuously for several minutes in a specific concentration either continuously or in a series of discrete dose intervals with potentially multiple times per day potentially over multiple days. As a result, any reduction in pathogen load in vitro may be compounded in vivo to achieve higher efficacy over the treatment period.\nas §1\nPurpose: COVID-19 is a global pandemic caused by the SARS-CoV-2 coronavirus. The purpose of these studies was to determine the efficacy of several inorganic acids against the human coronavirus and ascertain the pH required to achieve 1 log efficacy in 1 minute.\nSARS-CoV-2 is a beta coronavirus. An alpha coronavirus was used in these studies since this was the closest virus available at the test laboratory. The alpha coronavirus is considered to be representative for efficacy on SARS-CoV-2 for purposes of this investigation.\nDue to the larger increase in pH, none of the acids achieved the 1 log efficacy goal.\nThe EMEM includes live MRC-5 cells which have significant buffer capacity."}, "[9]": {"test_system": "Influenza A (H1N1) A/PR/8/34 Strain", "format": "cell-based, Influenza A virus"}, "Rhinovirus 37": {"test_system": "Rhinovirus 37", "assay": "ASTM E1052 virus suspension test, 1 minute", "format": "cell-based", "conditions": "1.66 and 1.90 pH"}, "L929 mouse cell line": {"test_system": "L929 mouse cell line", "conditions": "for Cytotoxicity Grade: mouse"}, "[10]": {"test_system": "Staphylococcus aureus ATCC (MRSA) 33591", "assay": "ASTM E2315 suspension test, 1 minute", "format": "cell-based", "conditions": "pH 3.1, one minute", "method": "as §1, §2, §3"}}, "note": "“And” between values parts separate entries of the source, which are not always exact repeats. Equal values may be shown once. Read-outs that look alike come from different tables or passages of the source."}
{"compound": "CC(=O)O", "note": "[acetic acid, Acetic acid]", "values": [{"measurement": "Log efficacy", "setting": "SARS-CoV-2 virus", "value": 4, "unit": "log"}]}
{"compound": "Br", "note": "[hydrobromic acid, Hydrobromic acid]", "values": [{"measurement": "Effective pH to meet the 1 log efficacy target", "setting": "[1]", "value": 1.90, "unit": "pH"}]}
{"compound": "Cl", "note": "[hydrochloric acid, Hydrochloric acid]", "values": [{"measurement": "Effective pH to meet the 1 log efficacy target", "setting": "[1]", "value": "approximately 1.87 pH"}, {"measurement": "Efficacy", "setting": "[1]; 1.98 pH", "value": "no little efficacy"}]}
{"compound": "O=S(=O)(O)O", "note": "[sulfuric acid, Sulfuric acid]", "values": [{"measurement": "Effectiveness", "setting": "[2]; 1.9 pH, antibiotic resistant strain", "value": "effective"}, {"measurement": "Effective pH to meet the 1 log efficacy target", "setting": "[1]", "value": 1.91, "unit": "pH"}, {"measurement": "Effectiveness", "setting": "[1]; 1.9 pH", "value": "effective"}, {"measurement": "Effectiveness", "setting": "[3]", "value": "highly effective"}, {"measurement": "Effectiveness", "setting": "[4]", "value": "highly effective"}, {"measurement": "Efficacy %", "setting": "[5]", "value": "25% and 24.56%"}, {"measurement": "Efficacy log", "setting": "[5]", "value": 0.12, "unit": "log"}, {"measurement": "Effectiveness", "setting": "[6]", "value": "effective"}, {"measurement": "Effectiveness", "setting": "[7]", "value": "effective"}, {"measurement": "Efficacy %", "setting": "[8]", "value": 82.11, "unit": "%"}, {"measurement": "Efficacy at inactivating human coronavirus", "setting": "[8]", "value": "provides efficacy at inactivating and/or reducing concentration of human coronavirus"}, {"measurement": "Efficacy log", "setting": "[8]", "value": 0.75, "unit": "log"}, {"measurement": "In vitro efficacy on human coronavirus", "setting": "[8]", "value": "demonstrated in vitro efficacy on human coronavirus"}, {"measurement": "In vitro suspension efficacy, %", "setting": "[8]", "value": 82.11, "unit": "%"}, {"measurement": "In vitro suspension efficacy, log", "setting": "[8]", "value": 0.75, "unit": "log"}, {"measurement": "Log efficacy", "setting": "[9]", "value": "> 4", "unit": "log"}, {"measurement": "Log efficacy", "setting": "Rhinovirus 37", "value": "> 2", "unit": "log"}, {"measurement": "Test Results", "setting": "L929 mouse cell line", "value": "No biological reactivity"}, {"measurement": "Cytotoxicity Grade", "setting": "L929 mouse cell line; 0.12 %", "value": "Grade 0"}, {"measurement": "Cytotoxicity Grade", "setting": "L929 mouse cell line; 0.18 %", "value": "Grade 0"}, {"measurement": "Cytotoxicity Grade", "setting": "L929 mouse cell line; 0.3 %", "value": "Grade 0"}, {"measurement": "Cytotoxicity Grade", "setting": "L929 mouse cell line; […]", "value": "Grade 0"}]}
{"compound": "Albuterol sulfate [reference compound]", "values": [{"measurement": "Effectiveness vs 1 log target", "setting": "[2]; 3.1 pH", "value": "no efficacy"}, {"measurement": "Efficacy as 1 log decrease in pathogen count", "setting": "[10]", "value": "no efficacy"}]}
{"compound": "Polyphosphoric acid", "values": [{"measurement": "Effective pH to meet the 1 log efficacy target", "setting": "[1]", "value": "approximately 1.85 pH"}]}
